Data: patent publication US20230159527A1, “COMPOUNDS AS BCL-2 INHIBITORS” (Fochon Pharmaceuticals, Ltd., priority 2020, published 2023)
Where two headings read alike, the source gives them in different places.

How the values were obtained:
Type in all cases: cell-based
RS4;11-BCL-2 G101V cells = test: Cell proliferation assay, engineered RS4;11 cells stably overexpressing BCL-2 G101V (MTS, 168 h); conditions: read-out: RS4, 11 BCL2- G101V
Summary of the method: (§1)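 Proliferation read-out: MTS for exactly 2 h, then absorbance at 490 nm, with IC50 derived from the fit. Before this, engineered RS4;11 lines (BCL-2 G101V, F104L; 5000 cells/well) were exposed 168 h at 37 °C to serially diluted compound, final 1.4–10000 nM.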

RS4;11-BCL-2 F104L cells = test: Cell proliferation assay, engineered RS4;11 cells stably overexpressing BCL-2 F104L (MTS, 168 h); conditions: Homo sapiens, read-out: RS4, 11 BCL2-F104L
Summary of the method: as §1

Toledo cells = test: Cell proliferation assay, Toledo cells (MTS, 72 h); conditions: Toledo cells, MTS, read-out: Toledo IC50
Summary of the method: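 IC50 was derived from 490 nm absorbance after a 2 h MTS step. Before that, compounds at 1.5–10000 nM final (nine points) acted on Toledo cells for 72 h at 37 °C, 5% CO2. Cells were seeded at 30000/well in 10% FBS RPMI-1640 and rested 4 h before dosing.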

| SMILES | IC50 (RS4;11-BCL-2 G101V cells; Homo sapiens, RS4-11, 168 h) | IC50 (RS4;11-BCL-2 F104L cells) | IC50 (RS4;11-BCL-2 G101V cells) | IC50 (Toledo cells; Homo sapiens) | IC50 (Toledo cells) |
| --- | --- | --- | --- | --- | --- |
| CC(C)c1ccccc1[C@@H]1CCCN1C1CC2(CCN(c3ccc(C(=O)NS(=O)(=O)c4cc5c(c([N+](=O)[O-])c4)N[C@@H]([C@H]4CC[C@](C)(O)CC4)CO5)c(Oc4cc5cc[nH]c5nc4OC[C@H]4COCCN4)c3)CC2)C1 (single isomer, unassigned) [Example D-216, N-(((S)-3-((1r,4S)-4-hydroxy-4-methylcyclohexyl)-5-nitro-3,4-dihydro-2H-benzo[b][1,4]oxazin-7-yl)sulfonyl)-4-(2-((R or S)-2-(2-isopropylphenyl)pyrrolidin-1-yl)-7-azaspiro[3.5]nonan-7-yl)-2-((6-(((R)-morpholin-3-yl)methoxy)-1H-pyrrolo[2,3-b]pyridin-5-yl)oxy)benzamide] | 1 nM | 1 nM | – | 1 nM | – |
| CC(C)c1ccccc1[C@@H]1CCC[C@@H]1N1CC2(CCN(c3ccc(C(=O)NS(=O)(=O)c4cc5c(c([N+](=O)[O-])c4)N[C@@H]([C@H]4CC[C@](C)(O)CC4)CO5)c(Oc4cc5c(F)c[nH]c5nc4F)c3)CC2)C1 (single isomer, unassigned) [Example D-96, 2-((3,6-difluoro-1H-pyrrolo[2,3-b]pyridin-5-yl)oxy)-N-(((S)-3-((1r,4S)-4-hydroxy-4-methylcyclohexyl)-5-nitro-3,4-dihydro-2H-benzo[b][1,4]oxazin-7-yl)sulfonyl)-4-(2-((1S,2S or 1R,2R)-2-(2-isopropylphenyl)cyclopentyl)-2,7-diazaspiro[3.5]nonan-7-yl)benzamide] | 4 nM | 1 nM | – | 1 nM | – |
| CC(C)c1ccccc1[C@@H]1CCC[C@@H]1N1CC2(CCN(c3ccc(C(=O)NS(=O)(=O)c4ccc(NC[C@H]5CC[C@](C)(O)CC5)c([N+](=O)[O-])c4)c(Oc4cc5c(F)c[nH]c5nc4Cl)c3)CC2)C1 (single isomer, unassigned) [Example D-113, 2-((6-chloro-3-fluoro-1H-pyrrolo [2,3-b]pyridin-5-yl)oxy)-N-((4-((((1r,4r)-4-hydroxy-4-methylcyclohexyl)methyl)amino)-3-nitrophenyl)sulfonyl)-4-(2-((1S,2S or 1R,2R)-2-(2-isopropylphenyl)cyclopentyl)-2,7-diazaspiro[3.5]nonan-7-yl)benzamide] | 19 nM | 1 nM | – | 1 nM | – |
| CC(C)c1ccccc1[C@@H]1CCC[C@@H]1N1CC2(CCN(c3ccc(C(=O)NS(=O)(=O)c4cnc(NC[C@H]5CC[C@](C)(O)CC5)c([N+](=O)[O-])c4)c(Oc4cc5c(F)c[nH]c5nc4F)c3)CC2)C1 (single isomer, unassigned) [Example A-150, 2-((3,6-difluoro-1H-pyrrolo[2,3-b]pyridin-5-yl)oxy)-N-((6-((((1r,4r)-4-hydroxy-4-methylcyclohexyl)methyl)amino)-5-nitropyridin-3-yl)sulfonyl)-4-(2-((1S,2S or 1R,2R)-2-(2-isopropylphenyl)cyclo-petyl)-2,7-diazaspiro[3.5]nonan-7-yl) benzamide] | 6 nM | 1 nM | – | 1 nM | – |
| CC(C)c1ccccc1[C@@H]1CCC[C@@H]1N1CC2(CCN(c3ccc(C(=O)NS(=O)(=O)c4ccc(NC[C@H]5CC[C@](C)(O)CC5)c([N+](=O)[O-])c4)c(Oc4cnc5[nH]cc(F)c5c4)c3)CC2)C1 (single isomer, unassigned) [Example D-34b, 2-((3-fluoro-1H-pyrrolo[2,3-b]pyridin-5-yl)oxy)-N-((4-((((1r,4r)-4-hydroxy-4-methylcyclohexyl)methyl)amino)-3-nitrophenyl)sulfonyl)-4-(2-((1S,2S or 1R,2R)-2-(2-isopropylphenyl)cyclopentyl)-2,7-diazaspiro[3.5]nonan-7-yl)benzamide] | – | 1 nM | 7 nM | – | 1 nM |
| CC(C)c1ccccc1[C@@H]1CCC[C@@H]1N1CC2(CCN(c3ccc(C(=O)NS(=O)(=O)c4cnc(NC[C@H]5CC[C@](C)(O)CC5)c([N+](=O)[O-])c4)c(Oc4cc5c(F)c[nH]c5nc4Cl)c3)CC2)C1 (single isomer, unassigned) [Example A-151, 2-((6-chloro-3-fluoro-1H-pyrrolo[2,3-b]pyridin-5-yl)oxy)-N-((6-((((1r,4r)-4-hydroxy-4-methylcyclohexyl)methyl)amino)-5-nitropyridin-3-yl)sulfonyl)-4-(2-((1S,2S or 1R,2R)-2-(2-isopropylphenyl)cyclo-pentyl)-2,7-diazaspiro[3.5]nonan-7-yl)_ benzamide] | 3 nM | 1 nM | – | 1 nM | – |

Further lines, with some results ahead:

| IC50 (RS4;11-BCL-2 G101V cells; Homo sapiens, RS4-11, 168 h) | IC50 (RS4;11-BCL-2 F104L cells) | IC50 (RS4;11-BCL-2 G101V cells) | SMILES | IC50 (Toledo cells; Homo sapiens) | IC50 (Toledo cells) |
| --- | --- | --- | --- | --- | --- |
| 1 nM | 1 nM | – | CC(C)c1ccccc1[C@@H]1CCCN1C1CC2(CCN(c3ccc(C(=O)NS(=O)(=O)c4cc5c(c([N+](=O)[O-])c4)N[C@@H]([C@H]4CC[C@](C)(O)CC4)CO5)c(Oc4cc5cc[nH]c5nc4OC[C@@H]4CCCN4C)c3)CC2)C1 (single isomer, unassigned) [Example D-131, N-(((S)-3-((1r,4S)-4-hydroxy-4-methylcyclohexyl)-5-nitro-3,4-dihydro-2H-benzo[b][1,4]oxazin-7-yl)sulfonyl)-4-(2-((R or S)-2-(2-isopropylphenyl)pyrrolidin-1-yl)-7-azaspiro[3.5]nonan-7-yl)-2-((6-(((S)-1-methylpyrrolidin-2-yl)methoxy)-1H-pyrrolo[2,3-b]pyridin-5-yl)oxy)benzamide] | 1 nM | – |
| 1 nM | 25 nM | – | CC(C)c1ccccc1[C@@H]1CCCN1C1CC2(CCN(c3ccc(C(=O)NS(=O)(=O)c4cc5c(c([N+](=O)[O-])c4)N[C@@H]([C@H]4CC[C@](C)(O)CC4)CO5)c(Oc4cc5cc[nH]c5nc4F)c3)CC2)C1 (single isomer, unassigned) [Example D-64, 2-((6-fluoro-1H-pyrrolo[2,3-b]pyridin-5-yl)oxy)-N-(((S)-3-((1r,4S)-4-hydroxy-4-methylcyclohexyl)-5-nitro-3,4-dihydro-2H-benzo[b] [1,4]oxazin-7-yl)sulfonyl)-4-(2-((R or S)-2-(2-isopropylphenyl)pyrrolidin-1-yl)-7-azaspiro[3.5]nonan-7-yl)benzamide] | 1 nM | – |
| 1 nM | 1 nM | – | CCOc1nc2[nH]cc(F)c2cc1Oc1cc(N2CCC3(CC2)CN([C@H]2CCC[C@H]2c2ccccc2C(C)C)C3)ccc1C(=O)NS(=O)(=O)c1cc2c(c([N+](=O)[O-])c1)N[C@@H]([C@H]1CC[C@](C)(O)CC1)CO2 (single isomer, unassigned) [Example D-103, 2-((6-ethoxy-3-fluoro-1H-pyrrolo [2,3-b]pyridin-5-yl)oxy)-N-(((S)-3-((1r,4S)-4-hydroxy-4-methylcyclohexyl)-5-nitro-3,4-dihydro-2H-benzo[b][1,4]oxazin-7-yl)sulfonyl)-4-(2-((1S,2S or 1R,2R)-2-(2-isopropylphenyl)cyclopentyl)-2,7-diazaspiro[3.5]nonan-7-yl)benzamide] | 1 nM | – |
| 28 nM | 5 nM | – | CCOc1nc2[nH]cc(F)c2cc1Oc1cc(N2CCC3(CC2)CC(N2CCC[C@H]2c2ccccc2C(C)C)C3)ccc1C(=O)NS(=O)(=O)c1cc2c(c([N+](=O)[O-])c1)N[C@@H]([C@H]1CC[C@](C)(O)CC1)CO2 (single isomer, unassigned) [Example D-85, 2-((6-ethoxy-3-fluoro-1H-pyrrolo [2,3-b]pyridin-5-yl)oxy)-N-(((S)-3-((1r,4S)-4-hydroxy-4-methylcyclohexyl)-5-nitro-3,4-dihydro-2H-benzo[b][1,4]oxazin-7-yl)sulfonyl)-4-(2-((R or S)-2-(2-isopropylphenyl)pyrrolidin-1-yl)-7-azaspiro[3.5]nonan-7-yl)benzamide] | 1 nM | – |
